Results from ChEMBL document CHEMBL1201862, “PubChem BioAssay data set” (2004).
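Step 1: Grow cells in 96-well plates. Step 2: Expose to compound for 48 hours at 5 concentrations. Step 3: Interpolate endpoints linearly; if unreached, use highest concentration. GI50 = concentration required for 50% inhibition of growth.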 Activity calls are given as the source filed them. Cut-off read from the data, not from the text of the source: active = GI50 up to about 1.1 µM and inactive = higher.

What was measured:
Experiment in all cases: growth of human tumour cells (NCI), 48 h
CCRF-CEM = system: CCRF-CEM
UO-31 = system: UO-31
SK-MEL-28 = system: SK-MEL-28
NCI-H460 = system: NCI-H460
KM12 = system: KM12
HT-29 = system: HT-29
MDA-MB-435 = system: MDA-MB-435
NCI-H23 = system: NCI-H23
HOP-62 = system: HOP-62
MDA-N = system: MDA-N
U-251 = system: U-251
SW-620 = system: SW-620
SK-MEL-2 = system: SK-MEL-2
COLO 205 = system: COLO 205
SF-268 = system: SF-268
BT-549 = system: BT-549
TK-10 = system: TK-10
UACC-257 = system: UACC-257
SF-295 = system: SF-295
SR = system: SR

Structure (SMILES) | GI50 (CCRF-CEM) | GI50 (UO-31) | GI50 (SK-MEL-28) | GI50 (NCI-H460) | GI50 (KM12) | GI50 (HT-29) | GI50 (MDA-MB-435) | GI50 (NCI-H23) | GI50 (HOP-62) | GI50 (MDA-N) | GI50 (U-251) | GI50 (SW-620) | GI50 (SK-MEL-2) | GI50 (COLO 205) | GI50 (SF-268) | GI50 (BT-549) | GI50 (TK-10) | GI50 (UACC-257) | GI50 (SF-295) | GI50 (SR)
CC1=C(C2=C(C)C(=O)C(=O)c3cc(C)ccc32)c2ccc(C)cc2C(=O)C1=O | 0.152 µM (active) | 0.178 µM (active) | 0.185 µM (active) | 0.243 µM (active) | 0.205 µM (active) | 0.277 µM (active) | 0.201 µM (active) | 0.208 µM (active) | 0.451 µM (active) | 0.187 µM (active) | 0.226 µM (active) | 0.255 µM (active) | 0.313 µM (active) | 0.269 µM (active) | 0.203 µM (active) | 0.19 µM (active) | 0.64 µM (active) | 0.193 µM (active) | 0.194 µM (active) | –
O=C(NNc1cn[nH]c(=O)c1Cl)/C(=C/c1ccc2c(c1)OCO2)NC(=O)c1ccccc1 | – | 48.2 µM (inactive) | 74.3 µM (inactive) | 35.6 µM (inactive) | 34.7 µM (inactive) | 41.5 µM (inactive) | 79.4 µM (inactive) | 42.5 µM (inactive) | 57.1 µM (inactive) | 44.7 µM (inactive) | 53.5 µM (inactive) | 41.2 µM (inactive) | 51.9 µM (inactive) | 46.9 µM (inactive) | – | 18.5 µM (inactive) | 34 µM (inactive) | > 100 µM (inactive) | 71.3 µM (inactive) | –
CCCc1cn2c(/C=N/NC(=N)N)c(-c3ccc(Cl)c([N+](=O)[O-])c3)nc2s1 | 0.192 µM (active) | 1.76 µM (inactive) | 1.64 µM (inactive) | 2.1 µM (inactive) | 1.33 µM (inactive) | 0.826 µM (active) | 1.75 µM (inactive) | 1.74 µM (inactive) | 1.88 µM (inactive) | – | 1.63 µM (inactive) | 1.07 µM (active) | 1.71 µM (inactive) | 1.51 µM (inactive) | 2.36 µM (inactive) | 1.68 µM (inactive) | 1.54 µM (inactive) | 1.61 µM (inactive) | 1.66 µM (inactive) | 1.25 µM (inactive)
O=CCC1CCCCC1 | – | > 100 µM (inactive) | > 100 µM (inactive) | > 100 µM (inactive) | 88.7 µM (inactive) | – | > 100 µM (inactive) | > 100 µM (inactive) | > 100 µM (inactive) | > 100 µM (inactive) | – | > 100 µM (inactive) | > 100 µM (inactive) | > 100 µM (inactive) | > 100 µM (inactive) | > 100 µM (inactive) | – | > 100 µM (inactive) | > 100 µM (inactive) | –
CC1=C(C)C(=O)C(C2=C(C3=CC(=O)C(C)=C(C)C3=O)C(=O)C(C)=C(C)C2=O)=CC1=O | > 100 µM (inactive) | 4.59 µM (inactive) | 6.87 µM (inactive) | 14.9 µM (inactive) | 8.51 µM (inactive) | 3.01 µM (inactive) | 3.52 µM (inactive) | 14.7 µM (inactive) | 18.7 µM (inactive) | 2.65 µM (inactive) | 3.68 µM (inactive) | 3.32 µM (inactive) | 14.5 µM (inactive) | 2.89 µM (inactive) | 12.6 µM (inactive) | 10 µM (inactive) | 12 µM (inactive) | 13.3 µM (inactive) | 17.7 µM (inactive) | –
O=C(N/C(=C/c1ccc(Cl)cc1Cl)c1nc2ccccc2s1)c1ccccc1 | 4.72 µM (inactive) | 13.6 µM (inactive) | 15.6 µM (inactive) | 17.8 µM (inactive) | 13.2 µM (inactive) | 19.3 µM (inactive) | 15.6 µM (inactive) | 11.8 µM (inactive) | 10.8 µM (inactive) | – | 2.5 µM (inactive) | 10.7 µM (inactive) | 17.7 µM (inactive) | 18.3 µM (inactive) | 14 µM (inactive) | 21.1 µM (inactive) | 21 µM (inactive) | 13.4 µM (inactive) | 12.7 µM (inactive) | 9.27 µM (inactive)
Clc1ccc(Nc2nnc(CNc3ccc(-c4nnc(Nc5ccc(Cl)cc5)s4)cc3)s2)cc1 | – | 4.68 µM (inactive) | 33.3 µM (inactive) | 15.2 µM (inactive) | 11 µM (inactive) | 11 µM (inactive) | 28.1 µM (inactive) | 39.3 µM (inactive) | 30.4 µM (inactive) | 18.2 µM (inactive) | 24.2 µM (inactive) | 28.4 µM (inactive) | 11.7 µM (inactive) | 20.2 µM (inactive) | 26.9 µM (inactive) | 71.9 µM (inactive) | 46.3 µM (inactive) | 34 µM (inactive) | 24.9 µM (inactive) | –
COc1ccc(P2(=S)Oc3ccccc3-c3ccccc3O2)cc1 | 0.356 µM (active) | 0.518 µM (active) | > 67.1 µM (inactive) | 0.35 µM (active) | 0.499 µM (active) | 0.274 µM (active) | 0.144 µM (active) | 0.579 µM (active) | 0.44 µM (active) | 0.147 µM (active) | 0.429 µM (active) | 0.423 µM (active) | 0.596 µM (active) | 0.343 µM (active) | 1.5 µM (inactive) | > 100 µM (inactive) | – | 1.35 µM (inactive) | 0.296 µM (active) | –
